Laboratory results published in patent US9255101B2 (BIOPROJECT, priority 2012, dated 2016).
Counter-ions that a name gives are not always drawn.

Molecular target: human H4 receptor (Homo sapiens, UniProt Q9H3N8)
Test: biochemical
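Further: radioligand displacement of a [3H]-labelled ligand from membranes of CHO cells stably expressing human H4 receptor, bound radioactivity counted on filters by liquid scintillation.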

Sequence of human H4 receptor (Q9H3N8 whole entry): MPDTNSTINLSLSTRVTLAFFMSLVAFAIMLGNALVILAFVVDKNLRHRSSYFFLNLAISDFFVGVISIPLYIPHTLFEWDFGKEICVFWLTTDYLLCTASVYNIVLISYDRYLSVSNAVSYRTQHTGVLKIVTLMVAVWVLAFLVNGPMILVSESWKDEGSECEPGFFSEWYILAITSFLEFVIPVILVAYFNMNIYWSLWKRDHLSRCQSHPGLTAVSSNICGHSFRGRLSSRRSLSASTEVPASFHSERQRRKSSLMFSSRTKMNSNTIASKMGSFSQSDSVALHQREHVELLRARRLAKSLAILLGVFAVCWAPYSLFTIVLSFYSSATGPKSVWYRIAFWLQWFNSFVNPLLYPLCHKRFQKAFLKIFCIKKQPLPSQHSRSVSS

| Structure (SMILES) | Ki [nM] |
| --- | --- |
| Cc1c(-c2ccc(CCS(C)(=O)=O)cc2)nc2n1CCc1ccccc1C2OC1CCN(C)CC1 (centres unmarked) [Example 159, 2-[4-(2-methanesulfonylethyl)-phenyl]-1-methyl-4-(1-methylpiperidin-4-yloxy)-9,10-dihydro-4H-3,10a-diaza-benzo[f]azulene] | < 30 |
| CC(C)Cc1ccc(-c2cn3c(n2)C(OC2CCN(C)CC2)c2ccccc2CC3)cc1 (centres unmarked) [Example 28, 2-(4-isobutylphenyl)-4-(1-methylpiperidin-4-yloxy)-9,10-dihydro-4H-3,10a-diaza-benzo[f]azulene] | < 30 |
| CN1CCC(OC2c3ccccc3CCn3cc(-c4ccc(N(C)C(=O)C(C)(C)C)cc4)nc32)CC1 (centres unmarked) [Example 101, 2,2,N-trimethyl-N-{4-[4-(1-methylpiperidin-4-yloxy)-9,10-dihydro-4H-3,10a-diaza-benzo[f]azulen-2-yl]-phenyl}-propionamide oxalate] | < 300 |
| CN1CCC(OC2c3ccccc3CCn3cc(-c4ccc(CN5CCN(C(C)(C)C)C5=O)cc4)nc32)CC1 (centres unmarked) [Example 191, 1-tertbutyl-3-{4-[4-(1-methylpiperidin-4-yloxy)-9,10-dihydro-4H-3,10a-diaza-benzo[f]azulen-2-yl]benzyl}-imidazolidin-2-one] | < 300 |
| COCCC(=O)NCc1ccc(-c2cn3c(n2)C(OC2CCN(C)CC2)c2ccccc2CC3)cc1 (centres unmarked) [Example 138, 3-methoxy-N-{4-[4-(1-methylpiperidin-4-yloxy)-9,10-dihydro-4H-3,10a-diaza-benzo[f]azulen-2-yl]-benzyl}-propionamide] | < 1000 |
| CC(C)Cc1cn2c(n1)C(OC1CCN(C)CC1)c1ccccc1CC2 (centres unmarked) [Example 109, 2-isobutyl-4-(1-methylpiperidin-4-yloxy)-9,10-dihydro-4H-3,10a-diaza-benzo[f]azulene oxalate] | < 300 |
| CN1CCC(OC2c3ccccc3CCn3cc(SCc4ccco4)nc32)CC1 (centres unmarked) [Example 85, 2-(furan-2-ylmethylsulfanyl)-4-(1-methylpiperidin-4-yloxy)-9,10-dihydro-4H-3,10a-diaza-benzo[f]azulene oxalate] | < 300 |
| Cc1nc2n(c1-c1ccccc1)CCc1ccccc1C2OC1CCN(C)CC1 (centres unmarked) [Example 123, 2-methyl-4-(1-methylpiperidin-4-yloxy)-1-phenyl-9,10-dihydro-4H-3,10a-diaza-benzo[f]azulene oxalate] | < 300 |
| CN1CCC(OC2c3ccccc3CCn3cc(-c4ccc(CN5C(=O)OC(C)(C)C5=O)cc4)nc32)CC1 (centres unmarked) [Example 198, 5,5-dimethyl-3-{4-[4-(1-methylpiperidin-4-yloxy)-9,10-dihydro-4H-3,10a-diaza-benzo[f]azulen-2-yl]benzyl}-oxazolidine-2,4-dione] | < 300 |
| CN1CCC(OC2c3ccccc3CCn3c2nc(Cc2ccccc2)c3C#N)CC1 (centres unmarked) [Example 263, 2-benzyl-4-(1-methylpiperidin-4-yloxy)-9,10-dihydro-4H-3,10a-diaza-benzo[f]azulene-1-carbonitrile] | < 300 |
| Cc1c(-c2ccc(N3CCN(C(C)C)C3=O)cc2)nc2n1CCc1ccccc1C2OC1CCN(C)CC1 (centres unmarked) [Example 178, 1-isopropyl-3-{4-[1-methyl-4-(1-methylpiperidin-4-yloxy)-9,10-dihydro-4H-3,10a-diaza-benzo[f]azulen-2-yl]-phenyl}-imidazolidin-2-one] | < 30 |
| CN1CCC(OC2c3ccccc3CCn3c2nc(-c2ccc(NC(=O)OC(C)(C)C)cc2)c3Cl)CC1 (centres unmarked) [Example 141, {4-[1-chloro-4-(1-methylpiperidin-4-yloxy)-9,10-dihydro-4H-3,10a-diaza-benzo[f]azulen-2-yl]-phenyl}-carbamic acid tert-butyl ester] | < 30 |
| CN1CCC(OC2c3ccccc3CCn3cc(C=CCCCc4ccccc4)nc32)CC1 (centres unmarked) [Example 89, 4-(1-methylpiperidin-4-yloxy)-2-(5-phenylpent-1-enyl)-9,10-dihydro-4H-3,10a-diaza-benzo[f]azulene] | < 30 |
| CN1CCC(OC2c3ccccc3CCn3cc(-c4ccc(CNC(=O)C(C)(C)C)cc4)nc32)CC1 (centres unmarked) [Example 136, 2,2-dimethyl-N-{4-[4-(1-methylpiperidin-4-yloxy)-9,10-dihydro-4H-3,10a-diaza-benzo[f]azulen-2-yl]-benzyl}-propionamide] | < 300 |
| CN1CCC(OC2c3ccccc3CCn3cc(-c4ccc(CCN(C)C(=O)OC(C)(C)C)cc4)nc32)CC1 (centres unmarked) [Example 197, methyl-(2-{4-[4-(1-methylpiperidin-4-yloxy)-9,10-dihydro-4H-3,10a-diaza-benzo[f]azulen-2-yl]-phenyl}-ethyl)-carbamic acid tert-butyl ester] | < 30 |
| C=C(C)Cc1nc2n(c1C)CCc1ccccc1C2OC1CCN(C)CC1 (centres unmarked) [Example 260, 1-methyl-2-(2-methylallyl)-4-(1-methylpiperidin-4-yloxy)-9,10-dihydro-4H-3,10a-diaza-benzo[f]azulene] | < 300 |
| Cc1c(-c2ccc(NC(=S)NC3CC3)cc2)nc2n1CCc1ccccc1C2OC1CCN(C)CC1 (centres unmarked) [Example 208, 1-cyclopropyl-3-{4-[1-methyl-4-(1-methylpiperidin-4-yloxy)-9,10-dihydro-4H-3,10a-diaza-benzo[f]azulen-2-yl]-phenyl}-thiourea] | < 300 |
| Cc1c(-c2ccccn2)nc2n1CCc1ccccc1C2OC1CCN(C)CC1 (centres unmarked) [Example 251, 1-methyl-4-(1-methylpiperidin-4-yloxy)-2-pyridin-2-yl-9,10-dihydro-4H-3,10a-diaza-benzo[f]azulene] | < 300 |

| Structure (SMILES) | Ki [nM] |
| --- | --- |
| CN1CCC(OC2c3cccc(-c4ccccc4)c3CCn3cc(-c4ccccc4)nc32)CC1 (centres unmarked) [Example 92, 4-(1-methylpiperidin-4-yloxy)-2,8-diphenyl-9,10-dihydro-4H-3,10a-diaza-benzo[f]azulene] | < 300 |
| CN1CCC(OC2c3ccccc3CCn3cc(-c4nccs4)nc32)CC1 (centres unmarked) [Example 66, 4-(1-methylpiperidin-4-yloxy)-2-thiazol-2-yl-9,10-dihydro-4H-3,10a-diaza-benzo[f]azulene oxalate] | < 300 |
| Cc1c(-c2ccc(C3=CCCCC3)cc2)nc2n1CCc1ccccc1C2OC1CCN(C)CC1 (centres unmarked) [Example 170, 2-(4-cyclohex-1-enylphenyl)-1-methyl-4-(1-methylpiperidin-4-yloxy)-9,10-dihydro-4H-3,10a-diaza-benzo[f]azulene] | < 30 |
| Cc1c(-c2ccc(SCCNC(=O)OC(C)(C)C)cc2)nc2n1CCc1ccccc1C2OC1CCN(C)CC1 (centres unmarked) [Example 160, (2-{4-[1-methyl-4-(1-methylpiperidin-4-yloxy)-9,10-dihydro-4H-3,10a-diaza-benzo[f]azulen-2-yl]-phenylsulfanyl}-ethyl)-carbamic acid tert-butyl ester oxalate] | < 30 |
| CN1CCC(OC2c3ccccc3CCn3cc(-c4cccn4C)nc32)CC1 (centres unmarked) [Example 83, 4-(1-methylpiperidin-4-yloxy)-2-(1-methyl-1H-pyrrol-2-yl)-9,10-dihydro-4H-3,10a-diaza-benzo[f]azulene] | < 1000 |
| CN1CCC(OC2c3ccccc3CCn3cc(-c4ccc(CN5CCCC5=O)cc4)nc32)CC1 (centres unmarked) [Example 184, 1-{4-[4-(1-methylpiperidin-4-yloxy)-9,10-dihydro-4H-3,10a-diaza-benzo[f]azulen-2-yl]benzyl}-pyrrolidin-2-one] | < 1000 |
| Cc1c(-c2ccncc2)nc2n1CCc1ccccc1C2OC1CCN(C)CC1 (centres unmarked) [Example 250, 1-methyl-4-(1-methylpiperidin-4-yloxy)-2-pyridin-4-yl-9,10-dihydro-4H-3,10a-diaza-benzo[f]azulene] | < 1000 |
| Cc1c(-c2ccc(C(=O)NCCO)cc2)nc2n1CCc1ccccc1C2OC1CCN(C)CC1 (centres unmarked) [Example 217, N-(2-hydroxyethyl)-4-[1-methyl-4-(1-methylpiperidin-4-yloxy)-9,10-dihydro-4H-3,10a-diaza-benzo[f]azulen-2-yl]-benzamide] | < 300 |
| CN1CCC(OC2c3ccccc3CCn3cc(-c4ccc(Cl)cc4Cl)nc32)CC1 (centres unmarked) [Example 71, 2-(2,4-dichlorophenyl)-4-(1-methylpiperidin-4-yloxy)-9,10-dihydro-4H-3,10a-diaza-benzo[f]azulene oxalate] | < 30 |
| CN(C)CCCOC1c2ccccc2CCn2c1nc(I)c2I (centres unmarked) [Example 270, [3-(1,2-diiodo-9,10-dihydro-4H-3,10a-diaza-benzo[f]azulen-4-yloxy)-propyl]-dimethyl-amine] | < 1000 |
| CN(C)Cc1ccc(-c2cn3c(n2)C(OC2CCN(C)CC2)c2ccccc2CC3)cc1 (centres unmarked) [Example 113, dimethyl-{4-[4-(1-methylpiperidin-4-yloxy)-9,10-dihydro-4H-3,10a-diaza-benzo[f]azulen-2-yl]-benzyl}-amine] | < 300 |
| CN1CCC(OC2c3ccccc3CCn3cc(C=CC(=O)OC(C)(C)C)nc32)CC1 (centres unmarked) [Example 53, 3-[4-(1-methylpiperidin-4-yloxy)-9,10-dihydro-4H-3,10a-diaza-benzo[f]azulen-2-yl]-acrylic acid tert-butyl ester oxalate] | < 1000 |
| CN1CCC(OC2c3ccccc3CCn3cc(-c4ncco4)nc32)CC1 (centres unmarked) [Example 40, 4-(1-methylpiperidin-4-yloxy)-2-oxazol-2-yl-9,10-dihydro-4H-3,10a-diaza-benzo[f]azulene oxalate] | < 1000 |
| CCOC(=O)c1c(C)nc2n1CCc1ccccc1C2OC1CCN(C)CC1 (centres unmarked) [Example 116, 2-methyl-4-(1-methylpiperidin-4-yloxy)-9,10-dihydro-4H-3,10a-diazabenzo[f]azulene-1-carboxylic acid ethyl ester] | < 300 |
| Cc1ccc(-c2cn3c(n2)C(OC2CCN(C)CC2)c2ccccc2CC3)o1 (centres unmarked) [Example 51, 2-(5-methylfuran-2-yl)-4-(1-methylpiperidin-4-yloxy)-9,10-dihydro-4H-3,10a-diaza-benzo[f]azulene oxalate] | < 300 |
| Cc1c(C(O)C(C)C)nc2n1CCc1ccccc1C2OC1CCN(C)CC1 (centres unmarked) [Example 210, 2-methyl-1-[1-methyl-4-(1-methylpiperidin-4-yloxy)-9,10-dihydro-4H-3,10a-diaza-benzo[f]azulen-2-yl]-propan-1-ol, oxalate] | < 1000 |
| CN1CCC(OC2c3ccccc3CCn3cc(-c4ccncc4)nc32)CC1 (centres unmarked) [Example 44, 4-(1-methylpiperidin-4-yloxy)-2-pyridin-4-yl-9,10-dihydro-4H-3,10a-diaza-benzo[f]azulene oxalate] | < 1000 |
